Results on four compounds are retold here after patent US20080318949A1, “Pyrazolopyrimidinone Derivatives, Their Preparation And Their Use” (Topharman Shanghai Co., Ltd, priority 2005, published 2008).

One series concerns rat corpora cavernosa. Kind of series: Pharmacodynamic test: intracavernous pressure on electric stimulation of the cavernous nerve. The class given is in vivo. To be noted: anesthetized male SD rats, 5 mg/kg orally, ratio of ICP to MBp. The procedure: The test was carried out based on the methods reported (International Journal of Impotence Research 2002, 14, 251 and The Journal of Urology 1992, 147, 1124). After fasted for 12 hours, 4 male SD rats were randomized into each group. After anesthetizing the rats with sodium pentobarbital (50 mg/kg, i.p.), the penile skin was incised and the prepuce was degloved to expose completely the corpora cavernosa (CC). A needle linked to an electrophysiology instrument was inserted into the CC on the right side in order to measure the intracavernous pressure (ICP). The right carotid artery was cannulated in a similar manner to the polyethylene tube in order to monitor the mean blood pressure (MBp) continuously. […] Electric stimulation was performed at 2 Hz, for 60 s with a pulse duration of 5 ms and 3V using a stimulator. The compounds were administrated orally (5 mg/kg). The change of the ICP and MBp were monitored continuously before and after the administration. The effect of the compounds on the erection induced by electric stimulation was evaluated by the ratio of ICP to MBp. The parameter (ICP/MBp) was used to estimate the influence of the compounds to the rat corpora cavernosa. […] The statistical significance of the differences between groups was calculated using Duncan's multiple comparison.

A further series deals with T1, PDE3 (Homo sapiens, UniProt Q14432).
T1 construct: from tissue; host or cells: human platelets
Kind of series: PDE3 inhibitory activity test (scintillation proximity assay). The series is classed as biochemical. To be noted: PDE3 isolated from human platelets. An excerpt: (§1) The PDE5 and PDE3 were isolated form human platelets, while the PDE6 was isolated form bovine retinas. The enzyme inhibitory activity test conducted immediately after the enzymes had been isolated, using a scintillation proximity assay for the direct detection of AMP/GMP by the TRKQ7100 and TRKQ7090 kit. In summary, the effect of PDE inhibitors was investigated by assaying a fixed amount of enzyme in the presence of varying inhibitor concentrations and low substrate. The final assay volume was made up to 100 μl with 10 μl assay buffer (50 mM Tris/HCl PH 7.5, 8.3 mM MgCl2, 1.7 mM EGTA), and water. Reactions were initiated with enzyme, incubate for 30 minutes at 30° C. and terminated with 50 μl yttrium silicate SPA beads suspension containing zinc sulphate. Shook for 20 minutes and settled for 30 minutes in the dark, then counted on a BECKMAN LS6500 MULTI-PURPOSE SCINTILLATION COUNTER. The IC50 value for the compounds according the present invention was calculated according the counts.
PDE3 is a PDE isozyme distributed mainly in heart, so the inhibiting of PDE3 may lead to side effects associated with heart. Accordingly, the inhibitory activities of some example compounds according to the invention against PDE3 were determined.
On the technique in general: In a scintillation proximity assay essentially only radioactivity close to the scintillant gives light.

In another series the test system is male KM mouse. The series can be described thus: Acute oral toxicity test. The class given is in vivo. The following applies: single oral dose of 3 g/kg, 10 or 11 mice per group. The procedure:
In this test male KM mouse weighting 18-22 g were used, and 10 or 11 mouse were assigned randomly to each group. […] The animals were fasted for 12 hours before the administration.

The target in series [1] is T2, PDE5 from human platelets (Homo sapiens, UniProt O76074).
T2 construct: from tissue; host or cells: human platelets
Kind of series: PDE5 inhibitory activity test (scintillation proximity assay). The class given is biochemical.

The target in a further series is T3, PDE6 from bovine retina (Bos taurus, UniProt P11541+P23439).
T3 construct: the PDE6 was isolated form bovine retinas; from tissue; host or cells: bovine retina
T3 sequence (P11541 2-856 limits assumed): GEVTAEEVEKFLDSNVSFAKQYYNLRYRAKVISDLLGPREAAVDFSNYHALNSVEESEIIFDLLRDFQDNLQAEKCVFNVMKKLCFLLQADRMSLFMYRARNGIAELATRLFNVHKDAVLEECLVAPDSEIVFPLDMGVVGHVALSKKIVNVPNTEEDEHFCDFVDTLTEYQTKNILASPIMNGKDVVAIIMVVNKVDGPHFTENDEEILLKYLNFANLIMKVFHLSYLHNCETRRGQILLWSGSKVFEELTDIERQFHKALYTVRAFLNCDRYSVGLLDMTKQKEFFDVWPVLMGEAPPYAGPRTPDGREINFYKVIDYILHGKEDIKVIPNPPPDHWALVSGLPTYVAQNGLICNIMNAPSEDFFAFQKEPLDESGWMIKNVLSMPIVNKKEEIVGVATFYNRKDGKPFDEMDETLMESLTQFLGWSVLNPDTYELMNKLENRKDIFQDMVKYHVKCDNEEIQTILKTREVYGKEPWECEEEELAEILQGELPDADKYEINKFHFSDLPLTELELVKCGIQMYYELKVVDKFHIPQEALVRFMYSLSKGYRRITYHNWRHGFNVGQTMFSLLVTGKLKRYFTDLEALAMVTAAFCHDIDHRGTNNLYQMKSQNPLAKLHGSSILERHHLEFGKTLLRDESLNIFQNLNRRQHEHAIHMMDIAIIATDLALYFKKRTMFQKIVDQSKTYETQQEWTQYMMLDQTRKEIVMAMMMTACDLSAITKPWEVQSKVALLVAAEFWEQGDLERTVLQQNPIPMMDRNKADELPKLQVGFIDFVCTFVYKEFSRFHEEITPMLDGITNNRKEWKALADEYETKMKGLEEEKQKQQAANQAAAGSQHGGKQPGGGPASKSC
T3 sequence (P23439 2-850 limits assumed): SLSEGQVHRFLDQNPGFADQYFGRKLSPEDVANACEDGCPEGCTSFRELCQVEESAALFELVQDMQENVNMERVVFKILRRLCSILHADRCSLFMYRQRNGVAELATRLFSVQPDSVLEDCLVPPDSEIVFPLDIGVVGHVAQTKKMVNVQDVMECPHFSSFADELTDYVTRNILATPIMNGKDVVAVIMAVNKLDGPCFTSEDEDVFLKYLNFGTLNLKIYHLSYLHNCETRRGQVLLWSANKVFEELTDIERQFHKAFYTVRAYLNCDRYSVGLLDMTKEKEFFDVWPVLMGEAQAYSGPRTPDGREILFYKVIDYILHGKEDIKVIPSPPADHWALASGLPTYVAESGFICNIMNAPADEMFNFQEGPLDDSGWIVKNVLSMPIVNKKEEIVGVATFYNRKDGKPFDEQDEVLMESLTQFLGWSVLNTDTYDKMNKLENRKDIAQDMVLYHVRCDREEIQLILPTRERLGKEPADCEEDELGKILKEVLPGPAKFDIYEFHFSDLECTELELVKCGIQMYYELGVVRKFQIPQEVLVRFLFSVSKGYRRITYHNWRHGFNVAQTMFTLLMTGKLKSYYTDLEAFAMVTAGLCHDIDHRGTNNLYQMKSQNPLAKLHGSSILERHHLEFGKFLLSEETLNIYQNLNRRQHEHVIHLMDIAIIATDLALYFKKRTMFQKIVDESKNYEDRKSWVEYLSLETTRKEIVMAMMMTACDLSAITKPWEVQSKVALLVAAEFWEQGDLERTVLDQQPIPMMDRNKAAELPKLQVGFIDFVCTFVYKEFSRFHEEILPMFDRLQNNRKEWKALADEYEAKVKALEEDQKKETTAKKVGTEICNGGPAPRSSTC
The series can be described thus: PDE6 inhibitory activity test (scintillation proximity assay). The following applies: for IC50: PDE6 from bovine retina; for PDE6 IC50/PDE5 IC50: selectivity of PDE5 versus PDE6. The class given is biochemical.
Text: as §1

Setting [2] is: PDE5 in the PDE6 selectivity table.

T1 sequence (Q14432 whole entry): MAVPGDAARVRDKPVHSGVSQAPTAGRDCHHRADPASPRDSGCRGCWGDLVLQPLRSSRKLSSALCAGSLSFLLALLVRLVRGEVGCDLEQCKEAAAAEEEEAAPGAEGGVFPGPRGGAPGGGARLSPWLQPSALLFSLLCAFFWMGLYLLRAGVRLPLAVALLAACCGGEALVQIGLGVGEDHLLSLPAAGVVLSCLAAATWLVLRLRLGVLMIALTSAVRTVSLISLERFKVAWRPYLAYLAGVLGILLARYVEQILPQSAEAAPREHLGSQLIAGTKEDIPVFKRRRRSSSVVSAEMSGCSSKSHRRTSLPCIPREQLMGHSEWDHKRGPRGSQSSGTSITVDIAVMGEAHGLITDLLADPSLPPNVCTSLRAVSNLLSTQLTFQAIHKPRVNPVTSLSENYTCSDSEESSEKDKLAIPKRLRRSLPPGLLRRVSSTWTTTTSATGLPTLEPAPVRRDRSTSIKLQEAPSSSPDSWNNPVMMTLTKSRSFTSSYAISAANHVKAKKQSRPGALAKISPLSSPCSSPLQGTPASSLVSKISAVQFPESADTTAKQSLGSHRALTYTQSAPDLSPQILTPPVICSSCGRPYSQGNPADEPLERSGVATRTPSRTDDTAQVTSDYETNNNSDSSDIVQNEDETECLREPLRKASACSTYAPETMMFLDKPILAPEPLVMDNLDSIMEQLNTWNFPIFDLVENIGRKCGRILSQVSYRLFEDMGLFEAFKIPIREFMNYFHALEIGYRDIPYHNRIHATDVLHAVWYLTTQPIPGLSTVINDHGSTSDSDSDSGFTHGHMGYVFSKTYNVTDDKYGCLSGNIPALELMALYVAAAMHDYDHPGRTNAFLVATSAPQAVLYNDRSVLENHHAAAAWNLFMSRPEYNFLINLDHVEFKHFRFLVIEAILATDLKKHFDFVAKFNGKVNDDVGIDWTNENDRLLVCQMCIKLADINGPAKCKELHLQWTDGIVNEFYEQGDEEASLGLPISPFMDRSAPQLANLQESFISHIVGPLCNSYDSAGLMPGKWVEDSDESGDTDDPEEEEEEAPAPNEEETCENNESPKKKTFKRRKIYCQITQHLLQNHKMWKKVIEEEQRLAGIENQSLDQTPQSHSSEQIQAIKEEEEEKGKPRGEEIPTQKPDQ

Turning to `CCCOc1ccc(S(=O)(=O)N(CCCO)CCCOC(C)=O)cc1-c1nc2c(CCC)nn(C)c2c(=O)[nH]1` [Example 92, 1-methyl-5-{2-propoxy-5-[[1-(3-acetoxypropyl)-1-(3-hydroxypropyl)]amidosulfonyl]phenyl}-3-n-propyl-1,6-dihydro-7H-pyrazolol[4,3-d]pyrimidin-7-one], the ICP/BP in the series on rat corpora cavernosa is 86.4 ± 4.8. Further, the concentration for half-maximal inhibition (IC50) stood at 10500 nM against PDE3, 3.85 nM in series [1] (PDE5 from human platelets), 3.85 nM in series [1] (setting [2]) and 254 nM against PDE6 from bovine retina. This compound returned a Number of death in the series on male KM mouse of 0. In the series with male KM mouse, this compound had a mortality rate of 0%. Besides, the “PDE6 IC50/PDE5 IC50” value at PDE6 from bovine retina worked out at 66.0.

In the case of `CCCOc1ccc(S(=O)(=O)N(CCOC(C)=O)CCN2CCOCC2)cc1-c1nc2c(CCC)nn(C)c2c(=O)[nH]1` [Example 96, 1-methyl-5-{2-propoxy-5-[[1-(2-acetoxyethyl)-1-(2-morpholin-1-yl)ethyl]amidosulfonyl]phenyl}-3-n-propyl-1,6-dihydro-7H-pyrazolo[4,3-d]pyrimidin-7-one], in the series with rat corpora cavernosa, the ICP/BP came to 81.0 ± 9.5. The IC50 against PDE3 worked out at 12400 nM; in series [1] (PDE5 from human platelets), 4.24 nM; in series [1] (setting [2]), 4.24 nM; on PDE6 from bovine retina, 244 nM. Besides, the Number of death in the series with male KM mouse turned out to be 0. In addition, the mortality rate in the series with male KM mouse is 0%. Besides, at PDE6 from bovine retina, the “PDE6 IC50/PDE5 IC50” value is reported as 57.7.

Turning to `CCCOc1ccc(S(=O)(=O)N(CCCOC)CCCOC(C)=O)cc1-c1nc2c(CCC)nn(C)c2c(=O)[nH]1` [Example 118, 1-methyl-5-{2-propoxy-5-[[1-(3-methoxypropyl)-1-(3-acetoxypropyl)]amidosulfonyl]phenyl}-3-n-propyl-1,6-dihydro-7H-pyrazolo[4,3-d]pyrimidin-7-one], the ICP/BP in the series on rat corpora cavernosa is listed as 77.9 ± 2.3. In addition, the IC50 is 20500 nM against PDE3, 5.41 nM in series [1] (PDE5 from human platelets), 5.41 nM in series [1] (setting [2]) and 203 nM on PDE6 from bovine retina. In the series on male KM mouse, this compound returned a Number of death of 0. In the series on male KM mouse, this compound gave a mortality rate of 0%. For the same compound, the “PDE6 IC50/PDE5 IC50” value at PDE6 from bovine retina was 37.6.

In the case of `CCCOc1ccc(S(=O)(=O)N(CC)CCN2CCOCC2)cc1-c1nc2c(CC)nn(C)c2c(=O)[nH]1` [Example 54, 1-methyl-5-{2-propoxy-5-[[1-ethyl-1-(2-morpholin-1-yl)ethyl]amidosulfonyl]phenyl}-3-ethyl-1,6-dihydro-7H-pyrazolo[4,3-d]pyrimidin-7-one], the ICP/BP in the series on rat corpora cavernosa is 86.3 ± 6.4. The IC50 against PDE3 came to 16300 nM; in series [1] (PDE5 from human platelets) it was 9.81 nM; in series [1] (setting [2]) it was 9.81 nM; against PDE6 from bovine retina, 235 nM. The same compound returned a Number of death with male KM mouse of 0. The mortality rate in the series with male KM mouse was found to be 0%. The “PDE6 IC50/PDE5 IC50” value on PDE6 from bovine retina was found to be 23.9.

One may read the IC50 as the point on the concentration scale where inhibition reaches its midpoint. A lower IC50 goes with higher potency.
